Measurements published in patent US20140066488A1, “Inhibitors of Memapsin 2 Cleavage for the Treatment of Alzheimer's Disease” (Purdue Research Foundation, priority 2012, published 2014).
Read-outs that look alike come from different tables or passages of the source.

Columns and labels:
[1] = molecular target: β-secretase in neuroblastoma cells (Homo sapiens, UniProt P56817)
Text: The inventors have also evaluated the cellular inhibition of β-secretase in neuroblastoma cells.

[2] = molecular target: recombinant β-secretase (BACE 1, memapsin 2) (Homo sapiens, UniProt P56817); assay: BACE 1 enzyme inhibitory assay against recombinant β-secretase
Chain of recombinant β-secretase (BACE 1, memapsin 2) (P56817 46-501): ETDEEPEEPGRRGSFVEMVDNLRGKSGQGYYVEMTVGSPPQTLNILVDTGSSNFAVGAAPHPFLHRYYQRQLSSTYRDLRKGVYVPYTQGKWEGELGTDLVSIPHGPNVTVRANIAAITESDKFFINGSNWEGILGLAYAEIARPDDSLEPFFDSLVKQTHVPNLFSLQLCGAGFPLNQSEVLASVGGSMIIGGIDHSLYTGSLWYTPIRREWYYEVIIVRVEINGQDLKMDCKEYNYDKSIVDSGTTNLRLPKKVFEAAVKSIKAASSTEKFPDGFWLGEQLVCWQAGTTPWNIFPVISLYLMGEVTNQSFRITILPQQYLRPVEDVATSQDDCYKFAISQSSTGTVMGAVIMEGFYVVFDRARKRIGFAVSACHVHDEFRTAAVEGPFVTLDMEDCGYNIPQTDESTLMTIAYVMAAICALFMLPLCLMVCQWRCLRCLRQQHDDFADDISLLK
Experimental: The BACE 1 inhibitory activity of synthetic inhibitors 4-9 was determined against recombinant β-secretase using previously reported assay protocols (Ermolieff et al., 2000).

human CD (cathepsin D) = human CD (cathepsin D) (Homo sapiens, UniProt P07339); assay: enzyme inhibition of human cathepsin D (CD); assay type: biochemical; conditions: for selectivity against CD: BACE 1 over CD; for Ki: human CD; for selectivity CD/BACE 1: ratio of Ki values
Chain of human CD (cathepsin D) (P07339 65-412): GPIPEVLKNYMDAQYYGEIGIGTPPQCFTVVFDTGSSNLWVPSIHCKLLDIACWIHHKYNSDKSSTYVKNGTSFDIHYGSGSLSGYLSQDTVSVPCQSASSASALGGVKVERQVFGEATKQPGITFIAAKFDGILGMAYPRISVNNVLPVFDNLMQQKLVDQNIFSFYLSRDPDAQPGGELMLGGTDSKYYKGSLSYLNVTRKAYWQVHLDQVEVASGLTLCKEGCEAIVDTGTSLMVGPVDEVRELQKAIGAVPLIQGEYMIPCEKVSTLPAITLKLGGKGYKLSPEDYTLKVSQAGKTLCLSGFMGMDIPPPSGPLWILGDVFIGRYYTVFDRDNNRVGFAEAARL

recombinant BACE 2 = molecular target: T1, recombinant BACE 2 (Homo sapiens, UniProt Q9Y5Z0); assay: enzyme inhibition of recombinant BACE 2; assay type: biochemical; conditions: for selectivity BACE 2/BACE 1: ratio of Ki values; for Ki: recombinant BACE 2
T1 sequence (Q9Y5Z0 63-518): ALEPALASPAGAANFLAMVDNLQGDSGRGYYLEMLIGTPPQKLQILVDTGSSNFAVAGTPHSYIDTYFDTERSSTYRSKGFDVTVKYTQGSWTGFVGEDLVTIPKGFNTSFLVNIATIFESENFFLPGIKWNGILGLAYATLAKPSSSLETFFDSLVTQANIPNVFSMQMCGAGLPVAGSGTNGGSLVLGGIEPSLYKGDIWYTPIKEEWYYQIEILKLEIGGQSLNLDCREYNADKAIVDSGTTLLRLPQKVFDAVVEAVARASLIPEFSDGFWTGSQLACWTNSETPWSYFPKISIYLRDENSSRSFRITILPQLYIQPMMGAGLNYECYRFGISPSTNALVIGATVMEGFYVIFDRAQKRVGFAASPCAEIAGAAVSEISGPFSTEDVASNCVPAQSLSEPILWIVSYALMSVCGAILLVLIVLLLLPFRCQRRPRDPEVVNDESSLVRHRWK

[3] = read-out: IC50 (nM), cellular, determined in neuroblastoma cells
[4] = read-out: Ki (nM) BACE 1, recombinant β-secretase

Chain of β-secretase in neuroblastoma cells (P56817 46-501): as the sequence (P56817 46-501) above

Row | SMILES | IC50 [1, 3] [nM] | Ki [2, 4] [nM] | Ki (human CD (cathepsin D)) [nM] | selectivity CD/BACE 1 (human CD (cathepsin D)) | BACE 1 inhibitory activity (in words) ([2]; recombinant β-secretase) | selectivity against CD (in words) (human CD (cathepsin D)) | other results
1 | CCc1cn2c3c(cc(C(=O)N[C@H](CN[C@H](C(=O)NCC(C)C)[C@H](C)O)Cc4ccccc4)cc13)N(C)S(=O)(=O)CC2 [Inhibitor 18] | 22 | 7.3 | 7100 | >970 |  |  | ratio of cell inhibitory to enzyme inhibitory efficacy ([1]; cellular IC50 / BACE 1 Ki): 3; selectivity against CD (human CD (cathepsin D)): over 970 fold
2 | CO[C@@H](C)[C@H](NC[C@H](Cc1ccccc1)NC(=O)c1cc(C(=O)N[C@H](C)c2ccccc2)cc(N(C)S(C)(=O)=O)c1)C(=O)NCC(C)C [Inhibitor 8] |  | 25 |  |  | substantial reduction in inhibitory potency |  | 
3 | CCc1cn2c3c(cc(C(=O)N[C@H](CN[C@H](C(=O)NCC(C)C)[C@H](C)O)Cc4ccccc4)cc13)N(C)S(=O)(=O)C1(CC1)C2 [Inhibitor 21] |  | 7.2 |  |  | impressive potency |  | 
4 | CCC[C@H](O)[C@H](NC[C@H](Cc1ccccc1)NC(=O)c1cc2c3c(c1)c(CC)cn3CC1(CC1)S(=O)(=O)N2C)C(=O)NCC(C)C [Inhibitor 22] |  |  | 2000 | >4200 | impressive potency |  | IC50 [1]: 14 nM; Ki [2]: 0.47 nM; selectivity against CD (human CD (cathepsin D)): > 4200 fold
5 | CCC[C@H](O)[C@H](NC[C@H](Cc1ccccc1)NC(=O)c1cc2c3c(c1)c(CC)cn3CCS(=O)(=O)N2C)C(=O)NCC(C)C [Inhibitor 19] |  | 0.4 | 690 | >1700 |  | improvement in CD selectivity | improvement in the potency ([2]; BACE 1 Ki, inhibitor 19 versus inhibitor 18): around 18 fold
6 | CCC[C@H](O)[C@H](NC[C@H](Cc1ccccc1)NC(=O)c1cc2c3c(c1)c(CC)cn3CC(C)(C)S(=O)(=O)N2C)C(=O)NCC(C)C [Inhibitor 20] | 15 | 0.036 | 530 | >14700 |  | excellent selectivity | potency enhancement ([2]; BACE 1 Ki, over unsubstituted inhibitor 19): > 10 fold; selectivity against BACE 2 (in words) (recombinant BACE 2): good selectivity; selectivity BACE 2/BACE 1 (recombinant BACE 2): >300; Ki (recombinant BACE 2): 11 nM
7 | CC(C)CNC[C@@H](NC[C@H](Cc1ccccc1)NC(=O)c1cc(C(=O)N[C@H](C)c2ccccc2)cc(N(C)S(C)(=O)=O)c1)[C@H](C)O [Inhibitor 9] |  |  |  |  | total loss in potency |  | 
8 | CC[C@H](NC[C@H](Cc1ccccc1)NC(=O)c1cc(C(=O)N[C@H](C)c2ccccc2)cc(N(C)S(C)(=O)=O)c1)C(=O)NCC(C)C [Inhibitor 4] | 9.5 | 27 | 8260 | >300 |  | marginal selectivity | selectivity against BACE 2 (in words) (recombinant BACE 2): marginal selectivity; selectivity against BACE 2 (recombinant BACE 2; BACE 1 over BACE 2): > 50 fold; selectivity BACE 2/BACE 1 (recombinant BACE 2): >55; Ki (recombinant BACE 2): 1450 nM
9 | CC(C)CN(C)C(=O)[C@@H](NC[C@H](Cc1ccccc1)NC(=O)c1cc(C(=O)N[C@H](C)c2ccccc2)cc(N(C)S(C)(=O)=O)c1)[C@H](C)O [Inhibitor 7] |  |  |  |  | abolished all BACE 1 inhibitory activity |  | Ki [2]: > 1000 nM
